Measured values: publication PMC9151520 (Archives of Toxicology, 2022)
pEC50: −log10 of the molar value. “And” between values parts separate entries of the source, which are not always exact repeats. Equal values may be shown once. Where a name gives a salt, the structure may show the parent alone. Read-outs that look alike come from different tables or passages of the source.

Tests used:
[1] = test system: p53 signaling (p53RE-bla HCT-116 cells); assay: cells; assay type: cell-based
[2] = test system: p53RE-bla HCT-116 cells
[3] = test system: p53 signaling (p53RE-bla HCT-116 cells); settings: for pEC50: read-out: p53 activation EC50, HLM
[4] = test system: p53 signaling (p53RE-bla HCT-116 cells)
[5] = read-out: p53 activation EC50, No MS
[6] = read-out: EC50, p53 activation, primary screening
[7] = Homo sapiens, HCT-116, read-out: p53 activation EC50, cherry pick confirmation
[8] = Homo sapiens, HCT-116, read-out: p53 activation EC50, primary screening
[9] = Homo sapiens, HCT-116, read-out: p53 activation efficacy, cherry pick confirmation
[10] = Homo sapiens, HCT-116, read-out: p53 activation efficacy, primary screening

For O=S(=O)(O)c1ccccc1C=Cc1ccc(-c2ccc(C=Cc3ccccc3S(=O)(=O)O)cc2)cc1.[Na].[Na] [Disodium 4,4'-bis(2-sulfostyryl)biphenyl], the “activity outcome in p53-bla assay” value [1] was “also active in the absence of microsomes”, the “p53 activation Efficacy, No MS” value [1] was 37.8243% and 32.5267% and the pEC50 [1, 5] was 4.60 and 4.47. For the same compound, the “Viability EC50, HLM” value [2] was “inactive”, the “Viability EC50, No MS” value [2] was “inactive” and the “Viability EC50, RLM” value [2] was “inactive”. The “Viability Efficacy, HLM” value [2] was “inactive”, the “Viability Efficacy, No MS” value [2] was “inactive” and the “Viability Efficacy, RLM” value [2] was “inactive”. For the same compound, the “activity outcome in p53-bla assay” value [3] was “active”, the pEC50 [3] was 4.73 and 4.55 and the pEC50 [4] was 4.53. For the same compound, the pEC50 ([4]; read-out: p53 activation EC50, RLM) was 4.53 and 4.60.
For CCN(CC)c1ccc2c(C)cc(=O)oc2c1 [7-Diethylamino-4-methylcoumarin], the pEC50 [1, 5] was 4.88 and 4.60, the “Viability EC50, HLM” value [2] was “inactive” and the “Viability EC50, No MS” value [2] was “inactive”. The “Viability EC50, RLM” value [2] was “inactive”, the “Viability Efficacy, HLM” value [2] was “inactive” and the “Viability Efficacy, No MS” value [2] was “inactive”. For the same compound, the “Viability Efficacy, RLM” value [2] was “inactive”, the “p53 activation EC50, HLM” value [3] was “inactive” and the pEC50 [3] was 4.39. The “p53 activation EC50, RLM” value [4] was “inactive” and the “p53 activation Efficacy, RLM” value [4] was “inactive”.
With CNC(=O)Oc1cccc2c1OC(C)(C)C2 [Carbofuran] the “p53 activation EC50” value [1] was “inactive”, the p53 activation efficacy [1] was “inactive” and the “Viability EC50” value [2] was “inactive”. For the same compound, the Viability efficacy [2] was “inactive”, the “p53 activation EC50” value [3] was “inactive” and the “p53 activation EC50” value [4] was “inactive”.
With Cc1cccc2sc3nncn3c12 [2,7,8,9-Tricyclazole] the “p53 activation EC50” value [1] was “inactive”, the p53 activation efficacy [1] was “inactive” and the “Viability EC50” value [2] was “inactive”. The Viability efficacy [2] was “inactive”, the “p53 activation EC50” value [3] was “inactive” and the “p53 activation EC50” value [4] was “inactive”.
For CCC[CH2][Sn]([Cl])([Cl])[CH2]CCC [Dibutyltin dichloride], the “EC50, p53 activation, cherry pick confirmation” value [1] was “inactive”, the “Efficacy, p53 activation, cherry pick confirmation” value [1] was “inactive” and the “Efficacy, p53 activation, primary screening” value [1] was 73.9367. The pEC50 [1, 6] was 4.57, the “EC50, viability, primary screening” value [2] was “inactive” and the “EC50, p53 activation, cherry pick confirmation” value [3] was “inactive”. For the same compound, the “EC50, p53 activation, primary screening” value [3] was “inactive”, the “Efficacy, p53 activation, cherry pick confirmation” value [3] was “inactive” and the “Efficacy, p53 activation, primary screening” value [3] was “inactive”. The “EC50, p53 activation, cherry pick confirmation” value [4] was “inactive”, the “EC50, p53 activation, primary screening” value [4] was “inactive” and the “Efficacy, p53 activation, cherry pick confirmation” value [4] was “inactive”. The “Efficacy, p53 activation, primary screening” value [4] was “inactive”.
With Cl.O.c1cnc2c(c1)ccc1cccnc12 the “Efficacy, p53 activation, cherry pick confirmation” value [1] was 70.9047, the “Efficacy, p53 activation, primary screening” value [1] was 35.453 and the pEC50 ([1]; read-out: EC50, p53 activation, cherry pick confirmation) was 4.30. For the same compound, the pEC50 [1, 6] was 4.59, the “EC50, viability, cherry pick confirmation” value [2] was “inactive” and the “EC50, viability, primary screening” value [2] was “inactive”. For the same compound, the “Efficacy, viability, primary screening” value [2] was “inactive”, the pEC50 ([2]; read-out: EC50, viability, cherry pick confirmation) was 4.66 and the “EC50, p53 activation, cherry pick confirmation” value [3] was “inactive”. For the same compound, the “EC50, p53 activation, primary screening” value [3] was “inactive”, the “Efficacy, p53 activation, cherry pick confirmation” value [3] was “inactive” and the “Efficacy, p53 activation, primary screening” value [3] was “inactive”. For the same compound, the “EC50, p53 activation, cherry pick confirmation” value [4] was “inactive”, the “EC50, p53 activation, primary screening” value [4] was “inactive” and the “Efficacy, p53 activation, cherry pick confirmation” value [4] was “inactive”. For the same compound, the “Efficacy, p53 activation, primary screening” value [4] was “inactive”.
CCN(CC)CCNc1ccc(CO)c2sc3ccccc3c(=O)c12 [Hycanthone] was tested, and the pEC50 ([1]; Homo sapiens, HCT-116, read-out: EC50, p53 activation, cherry pick confirmation) was 4.74, the Emax ([1]; Homo sapiens, HCT-116, read-out: Efficacy, p53 activation, cherry pick confirmation) was 500% and the “EC50, viability, cherry pick confirmation” value [2] was “inactive”. For the same compound, the “EC50, viability, primary screening” value [2] was “inactive”, the “Efficacy, viability, cherry pick confirmation” value [2] was “inactive” and the “Efficacy, viability, primary screening” value [2] was “inactive”. The “EC50, p53 activation, cherry pick confirmation” value [3] was “inactive”, the “Efficacy, p53 activation, cherry pick confirmation” value [3] was “inactive” and the “EC50, p53 activation, cherry pick confirmation” value [4] was “inactive”. For the same compound, the “Efficacy, p53 activation, cherry pick confirmation” value [4] was “inactive”.
For CCN(CC)CCCC(C)Nc1c2ccc(Cl)cc2nc2ccc(OC)cc12 (stereo not shown) [Quinacrine dihydrochloride dihydrate], the pEC50 [1, 7] was 5.08, the pEC50 [1, 8] was 4.68 and the Emax [1, 9] was 271%. The Emax [1, 10] was 79.8%, the “Viability EC50, cherry pick confirmation” value [2] was “inactive” and the “Viability EC50, primary screening” value [2] was “inactive”. For the same compound, the “Viability efficacy, cherry pick confirmation” value [2] was “inactive”, the “Viability efficacy, primary screening” value [2] was “inactive” and the “p53 activation EC50, cherry pick confirmation” value [3] was “inactive”. For the same compound, the “p53 activation EC50, primary screening” value [3] was “inactive”, the “p53 activation efficacy, cherry pick confirmation” value [3] was “inactive” and the “p53 activation efficacy, primary screening” value [3] was “inactive”. The “p53 activation EC50, cherry pick confirmation” value [4] was “inactive”, the “p53 activation EC50, primary screening” value [4] was “inactive” and the “p53 activation efficacy, cherry pick confirmation” value [4] was “inactive”. For the same compound, the “p53 activation efficacy, primary screening” value [4] was “inactive”.
For CCC[S+]([O-])c1ccc2[nH]c(NC(=O)OC)nc2c1 (stereo not shown) [Albendazole oxide], the pEC50 [1, 7] was 4.69, the pEC50 [1, 8] was 4.89 and the Emax [1, 9] was 37.2%. The Emax [1, 10] was 33.8%, the “Viability EC50, cherry pick confirmation” value [2] was “inactive” and the “Viability EC50, primary screening” value [2] was “inactive”. For the same compound, the “Viability efficacy, cherry pick confirmation” value [2] was “inactive”, the “Viability efficacy, primary screening” value [2] was “inactive” and the “p53 activation EC50, cherry pick confirmation” value [3] was “inactive”. The “p53 activation EC50, primary screening” value [3] was “inactive”, the “p53 activation efficacy, cherry pick confirmation” value [3] was “inactive” and the “p53 activation efficacy, primary screening” value [3] was “inactive”. The “p53 activation EC50, cherry pick confirmation” value [4] was “inactive”, the “p53 activation EC50, primary screening” value [4] was “inactive” and the “p53 activation efficacy, cherry pick confirmation” value [4] was “inactive”. The “p53 activation efficacy, primary screening” value [4] was “inactive”.
For CCCCNC(=O)n1c(NC(=O)OC)nc2ccccc21 [Benomyl], the pEC50 [1, 7] was 5.05, the pEC50 [1, 8] was 4.94 and the Emax [1, 9] was 38.5%. The Emax [1, 10] was 88.9%, the “Viability EC50, cherry pick confirmation” value [2] was “inactive” and the “Viability EC50, primary screening” value [2] was “inactive”. The “Viability efficacy, cherry pick confirmation” value [2] was “inactive”, the “Viability efficacy, primary screening” value [2] was “inactive” and the “p53 activation EC50, cherry pick confirmation” value [3] was “inactive”. The “p53 activation EC50, primary screening” value [3] was “inactive”, the “p53 activation efficacy, cherry pick confirmation” value [3] was “inactive” and the “p53 activation efficacy, primary screening” value [3] was “inactive”. For the same compound, the “p53 activation EC50, cherry pick confirmation” value [4] was “inactive”, the “p53 activation EC50, primary screening” value [4] was “inactive” and the “p53 activation efficacy, cherry pick confirmation” value [4] was “inactive”. For the same compound, the “p53 activation efficacy, primary screening” value [4] was “inactive”.
In the case of COC(=O)Nc1nc2ccc(Sc3ccccc3)cc2[nH]1 [Fenbendazole], the “EC50, p53 activation, cherry pick confirmation” value [1] was “inactive”, the “Efficacy, p53 activation, cherry pick confirmation” value [1] was “inactive” and the pEC50 ([1]; Homo sapiens, HCT-116, read-out: EC50, p53 activation, primary screening) was 6.46. The Emax ([1]; Homo sapiens, HCT-116, read-out: Efficacy, p53 activation, primary screening) was 71%, the “EC50, viability, cherry pick confirmation” value [2] was “inactive” and the “EC50, viability, primary screening” value [2] was “inactive”. For the same compound, the “Efficacy, viability, cherry pick confirmation” value [2] was “inactive”, the “Efficacy, viability, primary screening” value [2] was “inactive” and the “EC50, p53 activation, cherry pick confirmation” value [3] was “inactive”. For the same compound, the “EC50, p53 activation, primary screening” value [3] was “inactive”, the “Efficacy, p53 activation, cherry pick confirmation” value [3] was “inactive” and the “Efficacy, p53 activation, primary screening” value [3] was “inactive”. For the same compound, the “EC50, p53 activation, cherry pick confirmation” value [4] was “inactive”, the “EC50, p53 activation, primary screening” value [4] was “inactive” and the “Efficacy, p53 activation, cherry pick confirmation” value [4] was “inactive”. The “Efficacy, p53 activation, primary screening” value [4] was “inactive”.
Cc1ccc([N+](=O)[O-])c(C)c1 [1,3-Dimethyl-4-nitrobenzene] was tested, and the “p53 activation EC50, cherry pick confirmation” value [1] was “inactive”, the “p53 activation EC50, primary screening” value [1] was “inactive” and the “p53 activation efficacy, cherry pick confirmation” value [1] was “inactive”. For the same compound, the “p53 activation efficacy, primary screening” value [1] was “inactive”, the “Viability EC50, cherry pick confirmation” value [2] was “inactive” and the “Viability EC50, primary screening” value [2] was “inactive”. The “Viability efficacy, cherry pick confirmation” value [2] was “inactive”, the “Viability efficacy, primary screening” value [2] was “inactive” and the “p53 activation EC50, cherry pick confirmation” value [3] was “inactive”. The “p53 activation efficacy, cherry pick confirmation” value [3] was “inactive”, the “p53 activation EC50, cherry pick confirmation” value [4] was “inactive” and the “p53 activation efficacy, cherry pick confirmation” value [4] was “inactive”.
